Assay results reported in the supplement of paper PMC8617591.

What was measured:
[1] = system: Mycobacterium tuberculosis Erdman (autoluminescent); assay: total FIC90 (Loewe) at 90% inhibition, three-drug combination (log2); higher = more antagonistic
Protocol: (§1)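 DiaMOND equipotent three-drug combination dose responses (10 doses, 1.5- or 2-fold spacing, centred on IC90) against autoluminescent M. tuberculosis Erdman in 8 in vitro models. Read-out is OD600, or luminescence for the intracellular and dormancy models, normalised to untreated wells. Hill-fit Einf, AUC25 and GRinf are potency metrics; FIC50 and FIC90 are total Loewe fractional inhibitory concentrations as log2 (negative = synergy).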

[2] = system: Mycobacterium tuberculosis Erdman (autoluminescent); assay: Einf, fitted maximum growth inhibition of three-drug combination (fraction); higher = stronger maximal inhibition
Protocol: as §1

[3] = system: Mycobacterium tuberculosis Erdman (autoluminescent); assay: total FIC50 (Loewe) at 50% inhibition, three-drug combination (log2); higher = more antagonistic
Protocol: as §1

[4] = system: Mycobacterium tuberculosis Erdman (autoluminescent); assay: AUC25, normalised area under dose response up to IC25 (three-drug combination) (fraction (0-1)); higher = more potent at low dose
Protocol: as §1

[5] = system: Mycobacterium tuberculosis Erdman (autoluminescent); assay: GRinf, maximum normalised growth rate inhibition (three-drug combination) (unitless (-1 to 1)); higher = less effect (negative = killing)
Protocol: as §1

COc1c(N2C[C@@H]3CCCN[C@@H]3C2)c(F)cc2c(=O)c(C(=O)O)cn(C3CC3)c12 [moxifloxacin] + O=[N+]([O-])c1cn2c(n1)OC[C@@H](OCc1ccc(OC(F)(F)F)cc1)C2 [pretomanid] + CO[C@H]1/C=C/O[C@@]2(C)Oc3c(C)c(O)c4c(O)c(c(/C=N/N5CCN(C6CCCC6)CC5)c(O)c4c3C2=O)NC(=O)/C(C)=C\C=C\[C@H](C)[C@H](O)[C@@H](C)[C@@H](O)[C@@H](C)[C@H](OC(C)=O)[C@@H]1C [rifapentine]
Details | AUC25, [4] | Einf, [2] | GRinf, [5] | total FIC50, [3] | total FIC90, [1]
in vitro model: acidic pH 5.7, time point: constant (~7 days, model-specific) | 0.0693 | 0.874 | -0.139 | 0.708 | –
in vitro model: acidic pH 5.7, time point: terminal (~4-5 doublings, model-specific) | 0.0354 | 0.971 | -0.106 | 0.952 | 0.554
in vitro model: intracellular J774, time point: constant = terminal | – | 0.964 | -0.179 | – | 0.252

Details | AUC25, [4] | Einf, [2] | GRinf, [5] | total FIC50, [3] | total FIC90, [1]
in vitro model: butyrate, time point: constant (~7 days, model-specific) | 0.099 | 0.918 | -0.00663 | 0.501 | 0.722
in vitro model: butyrate, time point: terminal (~4-5 doublings, model-specific) | 0.0765 | 0.963 | -0.00653 | 0.582 | 0.784
in vitro model: cholesterol 0.05 mM, time point: constant (~7 days, model-specific) | 0.111 | 0.713 | -0.172 | 0.593 | –
in vitro model: cholesterol 0.05 mM, time point: terminal (~4-5 doublings, model-specific) | 0.0851 | 0.89 | -0.186 | 1.01 | 1.21
in vitro model: cholesterol-high 0.2 mM, time point: constant (~7 days, model-specific) | 0.0549 | 0.877 | -0.142 | 0.887 | 0.511
in vitro model: cholesterol-high 0.2 mM, time point: terminal (~4-5 doublings, model-specific) | 0.04 | 0.988 | -0.672 | 1.15 | 0.705
in vitro model: dormancy (butyrate + nitrate, low O2), time point: constant (~7 days, model-specific) | 0.0589 | 0.89 | 0.213 | 0.874 | 0.639
in vitro model: dormancy (butyrate + nitrate, low O2), time point: terminal (~4-5 doublings, model-specific) | 0.0483 | 0.98 | -0.128 | 1.17 | 1.14
in vitro model: standard 7H9 glycerol, time point: constant = terminal | 0.0568 | 0.928 | -0.0296 | 0.55 | 0.207
in vitro model: valerate, time point: constant (~7 days, model-specific) | 0.116 | 0.89 | 0.0703 | 0.213 | –
in vitro model: valerate, time point: terminal (~4-5 doublings, model-specific) | 0.0723 | 0.941 | 0.0683 | 0.631 | 0.879

COc1c(N2C[C@@H]3CCCN[C@@H]3C2)c(F)cc2c(=O)c(C(=O)O)cn(C3CC3)c12 [moxifloxacin] + O=[N+]([O-])c1cn2c(n1)OC[C@@H](OCc1ccc(OC(F)(F)F)cc1)C2 [pretomanid] + CO[C@H]1/C=C/O[C@@]2(C)Oc3c(C)c(O)c4c(O)c(c(/C=N/N5CCN(C)CC5)c(O)c4c3C2=O)NC(=O)/C(C)=C\C=C\[C@H](C)[C@H](O)[C@@H](C)[C@@H](O)[C@@H](C)[C@H](OC(C)=O)[C@@H]1C [rifampicin]
Details | AUC25, [4] | Einf, [2] | GRinf, [5] | total FIC50, [3] | total FIC90, [1]
in vitro model: acidic pH 5.7, time point: constant (~7 days, model-specific) | 0.0717 | 0.875 | -0.146 | 0.484 | –
in vitro model: acidic pH 5.7, time point: terminal (~4-5 doublings, model-specific) | 0.0448 | 0.974 | -0.163 | 0.652 | 0.221
in vitro model: intracellular J774, time point: constant = terminal | – | 0.979 | -0.304 | – | 0.0806

Details | AUC25, [4] | Einf, [2] | GRinf, [5] | total FIC50, [3] | total FIC90, [1]
in vitro model: butyrate, time point: constant (~7 days, model-specific) | 0.0923 | 0.912 | 0.0241 | 0.355 | 0.227
in vitro model: butyrate, time point: terminal (~4-5 doublings, model-specific) | 0.085 | 0.962 | 0.00652 | 0.25 | 0.434
in vitro model: cholesterol 0.05 mM, time point: constant (~7 days, model-specific) | 0.0931 | 0.606 | -0.000182 | 0.67 | –
in vitro model: cholesterol 0.05 mM, time point: terminal (~4-5 doublings, model-specific) | 0.0743 | 0.858 | -0.0705 | 1.14 | -0.636
in vitro model: cholesterol-high 0.2 mM, time point: constant (~7 days, model-specific) | 0.0701 | 0.849 | -0.468 | 0.869 | 1.29
in vitro model: cholesterol-high 0.2 mM, time point: terminal (~4-5 doublings, model-specific) | 0.0765 | 0.996 | -0.801 | 0.954 | 0.992
in vitro model: dormancy (butyrate + nitrate, low O2), time point: constant (~7 days, model-specific) | 0.0676 | 0.883 | 0.23 | 0.689 | 0.327
in vitro model: dormancy (butyrate + nitrate, low O2), time point: terminal (~4-5 doublings, model-specific) | 0.0531 | 0.965 | -0.0626 | 0.662 | 0.913
in vitro model: standard 7H9 glycerol, time point: constant = terminal | 0.0625 | 0.883 | 0.162 | 0.125 | –
in vitro model: valerate, time point: constant (~7 days, model-specific) | 0.0778 | 0.847 | 0.0569 | 0.325 | –
in vitro model: valerate, time point: terminal (~4-5 doublings, model-specific) | 0.0459 | 0.924 | 0.0455 | 0.877 | 0.41

COc1c(N2C[C@@H]3CCCN[C@@H]3C2)c(F)cc2c(=O)c(C(=O)O)cn(C3CC3)c12 [moxifloxacin] + O=[N+]([O-])c1cn2c(n1)OC[C@@H](OCc1ccc(OC(F)(F)F)cc1)C2 [pretomanid] + NC(=O)c1cnccn1 [pyrazinamide]
Details | AUC25, [4] | Einf, [2] | GRinf, [5] | total FIC50, [3] | total FIC90, [1]
in vitro model: acidic pH 5.7, time point: constant (~7 days, model-specific) | 0.0694 | 0.831 | -0.227 | -0.148 | –
in vitro model: acidic pH 5.7, time point: terminal (~4-5 doublings, model-specific) | 0.0654 | 0.956 | -0.278 | 0.329 | -0.227
in vitro model: intracellular J774, time point: constant = terminal | – | 0.967 | -0.384 | – | 0.419

Details | AUC25, [4] | Einf, [2] | GRinf, [5] | total FIC50, [3] | total FIC90, [1]
in vitro model: butyrate, time point: constant (~7 days, model-specific) | 0.111 | 0.909 | 0.0413 | 0.152 | 1.77
in vitro model: butyrate, time point: terminal (~4-5 doublings, model-specific) | 0.0867 | 0.967 | -0.0495 | 0.235 | 0.86
in vitro model: cholesterol 0.05 mM, time point: constant (~7 days, model-specific) | 0.128 | 0.753 | -0.295 | – | –
in vitro model: cholesterol 0.05 mM, time point: terminal (~4-5 doublings, model-specific) | 0.102 | 0.926 | -0.334 | 1.11 | –
in vitro model: cholesterol-high 0.2 mM, time point: constant (~7 days, model-specific) | 0.0858 | 0.914 | -0.29 | 0.415 | –
in vitro model: cholesterol-high 0.2 mM, time point: terminal (~4-5 doublings, model-specific) | 0.0802 | 1 | -0.594 | 0.654 | 0.481
in vitro model: dormancy (butyrate + nitrate, low O2), time point: constant (~7 days, model-specific) | 0.0852 | 0.871 | 0.199 | 0.104 | -0.0729
in vitro model: dormancy (butyrate + nitrate, low O2), time point: terminal (~4-5 doublings, model-specific) | 0.0687 | 0.982 | -0.232 | 0.195 | 0.876
in vitro model: standard 7H9 glycerol, time point: constant = terminal | 0.071 | 0.972 | -0.151 | – | –
in vitro model: valerate, time point: constant (~7 days, model-specific) | 0.0976 | 0.89 | 0.0242 | -0.452 | –
in vitro model: valerate, time point: terminal (~4-5 doublings, model-specific) | 0.0676 | 0.945 | 0.00495 | 0.11 | -0.163
